Measured values taken from the PolyMetriX glass transition set.

Row | SMILES | glass transition temperature
1 | *c1ccc(Oc2ccc(S(=O)(=O)c3ccc(Oc4ccc(N5C(=O)c6ccc([Si](C)(C)c7ccc8c(c7)C(=O)N(*)C8=O)cc6C5=O)cc4)cc3)cc2)cc1 (repeat unit) | 246.00 °C
2 | *CC(CC(Cl)(Cl)Cl)O* (repeat unit) | -36.00 °C
3 | *CC(*)C(=O)Oc1ccc(C)cc1 (repeat unit) | 42.50 °C
4 | *c1ccc(-c2nc(-c3cccc(-c4nnc(-c5ccccc5)c(*)n4)n3)nnc2-c2ccccc2)cc1 (repeat unit) | 260.00 °C
5 | *NNC(=O)/C=C/C(=O)Nc1cccc(/C=C2\CCC/C(=C\c3cccc(NC(=O)/C=C/C(*)=O)c3)C2=O)c1 (repeat unit) | 238.40 °C
6 | *NC(CCC(=O)OCC)C(*)=O (repeat unit) | 0.00 °C
7 | *c1ccc2c(c1)C(=O)N(c1c(C)cc(C(c3cc(C(F)(F)F)cc(C(F)(F)F)c3)c3cc(C)c(N4C(=O)c5ccc(C(*)(C(F)(F)F)C(F)(F)F)cc5C4=O)c(C)c3)cc1C)C2=O (repeat unit) | 288.00 °C
8 | *CCCCCCCCCCC(Cl)C(*)Cl (repeat unit) | -32.00 °C
9 | *CC(*)C(=O)c1ccc(C)cc1 (repeat unit) | 59.50 °C
10 | *c1ccc2c(c1)C(=O)N(c1ccc(Sc3ccc(Oc4ccc(Sc5ccc(N6C(=O)c7ccc(C(*)(C(F)(F)F)C(F)(F)F)cc7C6=O)cc5)cc4)cc3)cc1)C2=O (repeat unit) | 242.00 °C
11 | *CC(*)c1ccccc1C(=O)OCC (repeat unit) | 118.00 °C
12 | *c1ccc2c(c1)C(=O)N(c1ccc(Oc3cc(C(C)(C)C)c(Oc4ccc(N5C(=O)c6ccc(C(*)(C(F)(F)F)C(F)(F)F)cc6C5=O)cc4)cc3C(C)(C)C)cc1)C2=O (repeat unit) | 277.00 °C
13 | *c1ccc(Oc2ccc(-c3ccc(Oc4ccc(N5C(=O)c6ccc(Oc7ccc(Oc8ccc9c(c8)C(=O)N(*)C9=O)cc7)cc6C5=O)cc4)cc3)cc2)cc1 (repeat unit) | 230.00 °C
14 | *[Si](*)(CCCC)CCCCCC (repeat unit) | -40.00 °C
15 | *CC(*)(C)C(=O)Oc1ccccc1 (repeat unit) | 110.00 °C
16 | *CC(*)(C)C(=O)OCC(CC)CCCC (repeat unit) | -10.00 °C
17 | *C(=O)c1ccc2c(c1)C(=O)N(c1ccc(Oc3ccc(C(=O)c4cccc(C(=O)c5ccc(Oc6ccc(N7C(=O)c8ccc(*)cc8C7=O)cc6C(F)(F)F)cc5)n4)cc3)c(C(F)(F)F)c1)C2=O (repeat unit) | 225.20 °C
18 | *C(=O)c1ccc(Oc2ccc(C3(c4ccc(Oc5ccc(C(=O)c6ccc7c(c6)C(=O)N(c6ccc(Oc8ccc(N9C(=O)c%10ccc(*)cc%10C9=O)cc8)cc6)C7=O)cc5)cc4)OC(=O)c4ccccc43)cc2)cc1 (repeat unit) | 260.00 °C
19 | *c1ccc(-c2nc3ccc(-c4ccc5nc(*)c(-c6ccccc6)c(-c6ccccc6)c5c4)cc3c(-c3ccccc3)c2-c2ccccc2)cc1 (repeat unit) | 400.00 °C
20 | *N=P(*)(CC)c1ccccc1 (repeat unit) | 20.00 °C
21 | *c1ccc(N2C(=O)c3ccc(C(=O)c4ccc5c(c4)C(=O)N(c4ccc(-c6nc7cc(S(=O)(=O)c8ccc9nc(-c%10ccccc%10)c(*)nc9c8)ccc7nc6-c6ccccc6)cc4)C5=O)cc3C2=O)cc1 (repeat unit) | 240.00 °C
22 | *c1ccc(S(=O)(=O)c2ccc(-n3nc(-c4ccccc4)c4cc(Oc5ccc(C(C)(C)c6ccc(Oc7ccc8c(-c9ccccc9)nn(*)c(=O)c8c7)cc6)cc5)ccc4c3=O)cc2)cc1 (repeat unit) | 210.50 °C
23 | *N(CCC)[Si](C)(C)C[Si](*)(C)C (repeat unit) | -20.00 °C
24 | *c1ccc(Oc2ccc(N3C(=O)c4cccc(Oc5ccc(Sc6ccc(Oc7cccc8c7C(=O)N(*)C8=O)cc6)cc5)c4C3=O)cc2)cc1 (repeat unit) | 234.00 °C
25 | *c1cccc(N2C(=O)c3ccc(Oc4c(C)cc(-c5cc(C)c(Oc6ccc7c(c6)C(=O)N(*)C7=O)c(C)c5)cc4C)cc3C2=O)c1 (repeat unit) | 295.00 °C
26 | *c1ccc(C(c2ccc(N3C(=O)c4ccc(OCCN(CCOc5ccc6c(c5)C(=O)N(*)C6=O)c5ccc(/C=C/c6ccc([N+](=O)[O-])cc6)cc5)cc4C3=O)cc2)(C(F)(F)F)C(F)(F)F)cc1 (repeat unit) | 180.70 °C
27 | *CC(*)c1cccc(F)c1 (repeat unit) | 86.00 °C
28 | */C=C(\C#N)C(=O)NC1CCCCC1NC(=O)/C(C#N)=C/c1ccc(/C=C/c2ccc(N(c3ccccc3)c3ccc(N(c4ccccc4)c4ccc(/C=C/c5ccc(*)s5)cc4)cc3)cc2)s1 (repeat unit) | 240.00 °C
29 | *CC(*)C(=O)Oc1ccc(C(=O)O)cc1 (repeat unit) | 125.00 °C

The next lines start with the values.

Row | glass transition temperature | SMILES
30 | 240.00 °C | *Oc1ccc(NC(=O)/C=C/C(=O)NNC(=O)/C=C/C(=O)Nc2ccc(OC(=O)c3ccccc3C(=O)NNC(=O)c3ccccc3C(*)=O)cc2)cc1 (repeat unit)
31 | 126.00 °C | *CC(COc1ccc(C(C)(c2ccccc2)c2ccc(O*)cc2)cc1)OC(=O)c1ccccc1 (repeat unit)
32 | 150.00 °C | *CC(c1ccccn1)C(c1ccccc1)C(*)c1ccccn1 (repeat unit)
33 | 100.00 °C | *C(=O)OCCCCCCCCCOC(=O)c1ccc(NC(=O)c2ccc(N3C(=O)c4ccc(*)cc4C3=O)cc2)cc1 (repeat unit)
34 | 153.00 °C | *CCCC(C)CNC(=O)c1ccc(C(=O)N*)cc1 (repeat unit)
35 | 130.00 °C | *C(=O)OCC(COc1ccc(/N=N/c2ccc(C#N)cc2)cc1)OC(=O)c1ncccc1* (repeat unit)
36 | 24.00 °C | *CCOC(=O)CCC(=O)OCCOC(=O)c1ccc(C(=O)O*)cc1 (repeat unit)
37 | 216.00 °C | *C(=O)Nc1ccc(Oc2ccc(C(C)(C)c3ccc(Oc4ccc(NC(=O)c5ccc(N6C(=O)c7ccc(*)cc7C6=O)cc5)cc4)cc3)cc2)cc1 (repeat unit)
38 | 247.00 °C | *Oc1ccc(S(=O)(=O)c2ccc(Oc3ccc(C4(c5ccc(*)cc5)CCCCCC4)cc3)cc2)cc1 (repeat unit)
39 | 107.00 °C | *CC1CCCC(CNC(=O)CCCCC(=O)N*)C1 (repeat unit)
40 | 70.00 °C | *CCCCC(=O)NCc1ccc(CNC(=O)CCCCS*)cc1 (repeat unit)
41 | 138.00 °C | *Oc1cc(CC)cc(OC(=O)c2cccc(C(*)=O)c2)c1 (repeat unit)
42 | 7.50 °C | *CCOCCOCCOCCOc1ccc(/C=C(\C)c2ccc(O*)cc2)cc1 (repeat unit)
43 | 46.00 °C | *CC(*)(C)C(=O)OCCCCCCOc1ccc(C(=O)Oc2ccc(OC)cc2)cc1 (repeat unit)
44 | 60.00 °C | *OC(=O)/C=C/C(=O)OC1COC2C(*)COC12 (repeat unit)
45 | 85.00 °C | *Nc1cc(NC(=O)CCCCCCCCC(*)=O)cc(-c2nnc(-c3ccccn3)o2)c1 (repeat unit)
46 | 20.00 °C | *CC(*)(C)C(=O)OCCOCCOCCOCCOc1ccc(/N=N/c2ccc(C#N)cc2)cc1 (repeat unit)
47 | 123.00 °C | *CCCNC(=O)C(OC)C(OC)C(=O)N* (repeat unit)
48 | 195.00 °C | *NNC(=O)c1ccccc1C(=O)Nc1cccc(/C=C2\CCC/C(=C\c3cccc(NC(=O)c4ccccc4C(*)=O)c3)C2=O)c1 (repeat unit)

Row | glass transition temperature | SMILES
49 | 251.00 °C | *Oc1c(C)cc(C2(c3cc(C)c(Oc4ccc(C(=O)c5ccc(*)cc5)cc4)c(C)c3)CCC3CCCCC3C2)cc1C (repeat unit)
50 | 227.00 °C | *Oc1c(Cl)cc(C(C)(C)c2cc(Cl)c(OC(*)=O)c(Cl)c2)cc1Cl (repeat unit)
51 | 265.00 °C | *Oc1ccc(C(C)(C)c2ccc(OC(=O)c3ccc4c(c3)C(C)(c3ccc(C(*)=O)cc3)CC4(C)C)cc2)cc1 (repeat unit)
52 | 56.50 °C | */C=C/C1CC(*)C2C(=O)N(CCCCCCCC)C(=O)C12 (repeat unit)
53 | 147.00 °C | *OS(=O)(=O)c1cccc(S(=O)(=O)Oc2ccc(C(C)(CC)c3ccc(*)cc3)cc2)c1 (repeat unit)
54 | 202.50 °C | *CC(*)(C)C(=O)OCCCCCc1ccc(/N=N/c2ccc(OC(F)(F)F)cc2)cc1 (repeat unit)
55 | 60.00 °C | *CC(*)(F)C(=O)OCC(F)(F)C(F)(F)C(F)(F)C(F)F (repeat unit)
56 | -69.20 °C | *O[Si](*)(CCCOCCOCCOCCOC)CCCOCCOCCOCCOC (repeat unit)
57 | 65.60 °C | *CCC1C(=O)N(CCCCCCCCCCCCCCCC)C(=O)C1* (repeat unit)
58 | 84.00 °C | *CCOC(=O)NCC1(C)CC(NC(=O)O*)CC(C)(C)C1 (repeat unit)
59 | 180.00 °C | *CCCCCN1C(=O)c2ccc(C(c3ccc4c(c3)C(=O)N(*)C4=O)(C(F)(F)F)C(F)(F)F)cc2C1=O (repeat unit)
60 | 57.00 °C | *OCCOC(=O)CCCC(=O)OCCOc1nc(-c2ccc(OC)cc2)nc(*)c1-c1ccc(OC)cc1 (repeat unit)
61 | 258.00 °C | *c1ccc(Oc2ccc(N3C(=O)c4ccc(Sc5ccc6c(c5)C(=O)N(*)C6=O)cc4C3=O)cc2)cc1 (repeat unit)
62 | 107.00 °C | *Oc1ccc(C(C)c2ccc(OC(*)=S)cc2)cc1 (repeat unit)
63 | 13.00 °C | *c1ccc(-c2cc(CCCCCCCC)c(-c3ccc(-c4ccc(-c5sc(-c6ccc([Si](C)(C)[Si](C)(C)[Si](C)(C)[Si](C)(C)[Si](C)(C)[Si](C)(C)[Si](C)(C)[Si](*)(C)C)s6)cc5CCCCCCCC)s4)s3)s2)s1 (repeat unit)
64 | 193.00 °C | *Oc1ccc(-c2ccc(Oc3ccc(C(=O)c4ccccc4-c4ccccc4C(=O)c4ccc(*)cc4)cc3)cc2)cc1 (repeat unit)
65 | 155.00 °C | *Oc1ccc(C2(c3ccc(OC(*)=S)cc3)CCCCC2)cc1 (repeat unit)
66 | 50.00 °C | *Oc1ccc(CC(NC(=O)CCc2ccc(OC(=O)COCCOCC(*)=O)cc2)C(=O)OCC(C)C)cc1 (repeat unit)
